Like-named read-outs stand apart in the source and are kept apart here.
System: polyarthritis
Assay: Rat adjuvant arthritis (Freund's adjuvant polyarthritis), global arthritic joint score
Type: in vivo, rats
Conditions: po, 384 h, read-out: ED50 (dose that produced a 50% reduction of the average global arthritic joint score relative to a control group)

Compound | ED50 | ED50 (rats, in ground meal diet for 14 days from day of sensitization with Freund's adjuvant, evaluated on 16th day after sensitization)
CC(=O)Oc1ccccc1C(=O)O [Aspirin] | 102 mg/kg | 
COc1ccc(OC)c(Cc2cnc3nc(N)nc(N)c3c2C)c1 [2,4-diamino-5-methyl-6-(2,5-dimethoxybenzyl)pyrido[2,3-d]pyrimidine isethionate] |  | 19 mg/kg
